Experimental data from patent publication US20260176252A1, “IONIZABLE LIPIDS WITH BRANCHED HEAD GROUPS” (Beam Therapeutics Inc., priority 2023, published 2026).

How the values were obtained:
[1] = Dynamic light scattering (DLS) of LNP preparations: size (diameter) and polydispersity; assay type: physicochemical; settings: for AVG PDI / AVG Z Dia (nm): Table A, LNP 47.5% Ionizable Lipid:40% cholesterol:2.5% PEG-2000 DMG:10% DPSC, N/P 4.5-6
Method: A ratio of aqueous to organic solvent of approximately 2:1 or 3:1 was maintained during mixing using differential flow rates. After mixing, LNP preparations were collected, diluted in phosphate buffer saline (PBS) or Tris-buffered saline (TBS) (approximately 1:1 v/v). Further buffer exchange was conducted using dialysis in PBS or TBS at 4° C. for 4 to 24 hours against a 20 kDa filter. After this initial dialysis, each individual LNP preparation may be characterized via dynamic light scattering (DLS) to measure the size (e.g., diameter) and polydispersity. LNP preparations falling within specific diameter and polydispersity ranges were pooled, and further dialyzed against PBS or TBS at 4° C. for 1 to 4 hours against a 100 kDa dialysis cassette. After the second dialysis, LNP preparations were sterile filtered using 0.22 μm filter and stored at 4° C. for further use.
(§1) LNP preparations are formed by microfluidic mixing of the lipid and NA solutions using a Precision Nanosystems NanoAssemblr Ignite Instrument, according to the manufacturer's protocol. A 3:1 ratio of aqueous to organic solvent is maintained during mixing using differential flow rates. After mixing, LNP preparations are collected, diluted in PBS (approximately 2:1 v/v), and further buffer exchange is conducted using dialysis in PBS at 4° C. for 8 to 24 hours against a 20 kDa filter. After this initial dialysis, each individual LNP preparation is characterized via dynamic light scattering (DLS) to measure size and polydispersity. pKa of a subpopulation of LNP preparations is measured via TNS assay. After dialysis, LNP preparations are sterile filtered using 0.22 micron sterile filter and stored at 4° C. for further use. In some embodiments, LNP preparations may be concentrated using 100 kDa Amicon filters per manufacturer's protocol.
DLS-LNP preparation hydrodynamic diameter and polydispersity index (PDI) is measured using high throughput dynamic light scattering (DLS) (DynaPro plate reader II, Wyatt). LNP preparations are diluted 1×PBS to an appropriate concentration and analyzed.

[2] = Encapsulation efficiency of LNP preparations (unlysed and lysed LNPs); assay type: physicochemical; settings: for AVG EE(%): Table A, LNP 47.5% Ionizable Lipid:40% cholesterol:2.5% PEG-2000 DMG:10% DPSC, N/P 4.5-6, NA cargo with barcode
Method: Concentration of NA is determined by Qubit microRNA kit (for siRNA) or HS RNA kit (for mRNA) per manufacturer's instructions. Encapsulation efficiency is determined by measuring unlysed and lysed LNPs.

ALAS1 target site = experiment: In vivo base editing with LNP-delivered ABE mRNA and sgRNA targeting ALAS1; settings: Balb/c mice, IV tail vein, 4 days after dosing; for Liver Editing A->G (%): ALAS1, liver; for Quadracept Editing A->G (%): ALAS1, Quadracept (muscle)
Method: Exemplary LNP preparations are selected to determine each preparation's ability to perform base editing in a Balb/C mouse model as described herein.
Lipid nanoparticle components are dissolved in 100% ethanol at specified lipid component molar ratios. mRNA encoding an adenine base editor and a chemically-modified sgRNA is dissolved at a mass ratio of 1:1 in 10 mM citrate, 100 mM NaCl, pH 4.0, resulting in a concentration of NA cargo of approximately 0.22 mg/mL. LNP preparations are formulated with molar ratios of either 50% Ionizable Lipid:38.5% Cholesterol:1.5% PEG2000-DMG: 10% DSPC or 47.5% Ionizable Lipid:40% Cholesterol:2.5% PEG2000-DMG: 10% DSPC both at a total lipid to NA molar ratio of 6.
as §1
Male Balb/C mice aged approximately 8-12 weeks are used in the experiments described herein. Each mouse is temporarily restrained, and LNP preparations are administered IV via tail vein injection. Age-matched mice are also used to administer vehicle (1×PBS) via tail vein injection as a control. Four to six days post-dose, tissues including liver, spleen, heart and muscle are collected (only liver and muscle (quardracept) are reported). Genomic DNA is isolated and fragmented and adapter-ligated using the Nextera DNA Flex Library Prep Kit (Illumina) using the 96-well plate Nextera indexing primers (Illumina), according to the manufacturer's instructions. Library size and concentration is confirmed by Fragment Analyzer (Agilent) and sent to Novogene for whole genome sequencing using an Illumina HiSeq.
For base editing, mRNA encoding an adenine base editor (ABE) and a guide RNA (sgRNA) targeting ALAS1 at 1:1 (mass ratio) are coencapsulated in LNP preparations as described herein. LNP preparations are administrated into Balb/c mice through tail vein injections at concentrations ranging from 0.05 to 3.0 mg/kg total RNA. At 4 days after dosing, mice are euthanized and liver, spleen and bone barrow are harvested. Base editing is determined by performing targeted deep sequencing analysis at the ALAS1 target site using extracted genomic DNA.

[3] = pKa of LNP preparations via TNS assay; assay type: physicochemical; settings: Table D; LNP formulation ratio 47.5:40:2.5:10
Method: as §1

[4] = Table C, LNP formulation ratio 47.5:40:2.5:10, ABE mRNA + ALAS1 sgRNA 1:1
[5] = Table D, LNP formulation ratio 47.5:40:2.5:10, ABE mRNA + PCSK9 sgRNA 1:1

Molecule	Diameter (nm) [1, 4]	PDI (%) [1, 4]	EE (%) [2, 4]	Diameter (nm) [1, 5]	EE (%) [2, 5]	pKa [3]	also measured
7,7′-bis(2-(pent-4-en-1-yl)hept-6-en-1-yl) O′1,O1-(2-(((4-(((2-(pyrrolidin-1-yl)ethyl)carbamoyl)oxy)decanoyl)oxy)methyl)propane-1,3-diyl) di(heptanedioate) [Example 4]	124.45 nm	10.6%	87.2%	–	–	–	Liver Editing A->G (%) (ALAS1 target site; Dose 0.05 MPK total RNA): 1.59%
C=CCCCCCC(CCCCCC=C)OC(=O)CCCCCC(=O)OCC(COC(=O)CCCCCC(=O)OC(CCCCCC=C)CCCCCC=C)COC(=O)CCC(CCCCC)OC(=O)NCCN1CCCC1 (stereo not shown) [Example 2, 7,7′-di(pentadeca-1,14-dien-8-yl) O′1,O1-(2-(((4-(((2-(pyrrolidin-1-yl)ethyl)carbamoyl)oxy)nonanoyl)oxy)methyl)propane-1,3-diyl) di(heptanedioate)]	64.4 nm	8.2%	95.75%	–	–	–	AVG PDI [1]: 0.09; AVG Z Dia (nm) [1]: 78.76 nm; AVG EE(%) [2]: 90.7%; Quadracept Editing A->G (%) (ALAS1 target site; Dose 1.5 MPK total RNA): 1.7%; Liver Editing A->G (%) (ALAS1 target site; Dose 1.5 MPK total RNA): 86.3%
C=CCCCCCC(CCCCCC=C)COC(=O)CCCCC(=O)OCC(COC(=O)CCCCC(=O)OCC(CCCCCC=C)CCCCCC=C)COC(=O)CCC(CCCCCC)OC(=O)NCCN1CCCC1 (stereo not shown) [Example 5, bis(2-(hept-6-en-1-yl)non-8-en-1-yl) O,O′-(2-(((4-(((2-(pyrrolidin-1-yl)ethyl)carbamoyl)oxy)decanoyl)oxy)methyl)propane-1,3-diyl) diadipate]	64.5 nm	8.2%	95.84%	–	–	–	AVG PDI [1]: 0.08; AVG Z Dia (nm) [1]: 79.74 nm; AVG EE(%) [2]: 93.9%; Quadracept Editing A->G (%) (ALAS1 target site; Dose 1.5 MPK total RNA): 1.5%; Liver Editing A->G (%) (ALAS1 target site; Dose 1.5 MPK total RNA): 79.8%
CC/C=C\CCCC(CCC/C=C\CC)OC(=O)CCCCCC(=O)OCC(COC(=O)CCCCCC(=O)OC(CCC/C=C\CC)CCC/C=C\CC)COC(=O)CCC(CCCCCC)OC(=O)NCCN1CCCC1 (stereo not shown) [Example 6, 7,7′-di((3Z,12Z)-pentadeca-3,12-dien-8-yl) O′1,O1-(2-(((4-(((2-(pyrrolidin-1-yl)ethyl)carbamoyl)oxy)decanoyl)oxy)methyl)propane-1,3-diyl) di(heptanedioate)]	71 nm	10.8%	95.5%	–	–	–	Quadracept Editing A->G (%) (ALAS1 target site; Dose 1.5 MPK total RNA): 2.5%; Liver Editing A->G (%) (ALAS1 target site; Dose 1.5 MPK total RNA): 88.7%
CCCCCCC(CCC(=O)OCC(COC(=O)CCCCCC(=O)OC/C=C(\C)CCC=C(C)C)COC(=O)CCCCCC(=O)OC/C=C(\C)CCC=C(C)C)OC(=O)NCCN1CCCC1 (stereo not shown) [Example 7, 1-(2E)-3,7-dimethylocta-2,6-dien-1-yl 7-{3-[(7-{[(2E)-3,7-dimethylocta-2,6-dien-1-yl]oxy}-7-oxoheptanoyl)oxy]-2-({[4-({[2-(pyrrolidin-1-yl)ethyl]carbamoyl}oxy)decanoyl]oxy}methyl)propyl}heptanedioate]	–	–	–	134.3 nm	91.7%	7.17	–
CCCCCCC(CCC(=O)OCC(COC(=O)CCCCCC(=O)OCCC(C)CCCC(C)C)COC(=O)CCCCCC(=O)OCCC(C)CCCC(C)C)OC(=O)NCCN1CCCC1 (stereo not shown) [Example 8, 1-(3,7-Dimethyloctyl)-7-[3-({7-[(3,7-dimethyloctyl)oxy]-7-oxoheptanoyl}oxy)-2-({[4-({[2-(pyrrolidin-1-yl)ethyl]carbamoyl}oxy)decanoyl]oxy}methyl)propyl]heptanedioate]	–	–	–	110.35 nm	94.3%	6.74	–
CCCCCCC(CCC(=O)OCC(COC(=O)CCCCCC(=O)OCCC(C)CCC=C(C)C)COC(=O)CCCCCC(=O)OCCC(C)CCC=C(C)C)OC(=O)NCCN1CCCC1 (stereo not shown) [Example 9, 1-(3,7-dimethyloct-6-en-1-yl) 7-[3-({7-[(3,7-dimethyloct-6-en-1-yl)oxy]-7-oxoheptanoyl}oxy)-2-({[4-({[2-(pyrrolidine-1-yl)ethyl]carbamoyl}oxy)decanoyl]oxy}methyl)propyl]heptanedioate]	–	–	–	148.65 nm	85.3%	6.85	–
C=CC(C)(CCC=C(C)C)OC(=O)CCCCCC(=O)OCC(COC(=O)CCCCCC(=O)OC(C)(C=C)CCC=C(C)C)COC(=O)CCC(CCCCCC)OC(=O)NCCN1CCCC1 (stereo not shown) [Example 10, 1-(3,7-dimethylocta-1,6-dien-3-yl)-7-[3-({7-[(3,7-dimethylocta-1,6-dien-3-yl)oxy]-7-oxoheptanoyl}oxy)-2-({[4-({[2-(pyrrolidin-1-yl)ethyl]carbamoyl}oxy)decanoyl]oxy}methyl)propyl]heptanedioate]	–	–	–	135.28 nm	99.1%	6.814	–
CCCCCCC(CCC(=O)OCC(COC(=O)CCCCCC(=O)OC/C=C(/C)CCC=C(C)C)COC(=O)CCCCCC(=O)OC/C=C(/C)CCC=C(C)C)OC(=O)NCCN1CCCC1 (stereo not shown) [Example 11, 1-(2Z)-3,7-dimethylocta-2,6-dien-1-yl-7-{3-[(7-{[(2Z)-3,7-dimethylocta-2,6-dien-1-yl]oxy}-7-oxoheptanoyl)oxy]-2-({[4-({[2-(pyrrolidin-1-yl)ethyl]carbamoyl}oxy)decanoyl]oxy}methyl)propyl}heptanedioate]	–	–	–	152.05 nm	90.5%	6.85	–
C=C(C)C(CC=C(C)C)COC(=O)CCCCCC(=O)OCC(COC(=O)CCCCCC(=O)OCC(CC=C(C)C)C(=C)C)COC(=O)CCC(CCCCCC)OC(=O)NCCN1CCCC1 (stereo not shown) [Example 12, 1-[5-methyl-2-(prop-1-en-2-yl)hex-4-en-1-yl]-7-(2-{[(7-{[5-methyl-2-(prop-1-en-2-yl)hex-4-en-1-yl]oxy}-7-oxoheptanoyl)oxy]methyl}-3-{[4-({[2-(pyrrolidin-1-yl)ethyl]carbamoyl}oxy)decanoyl]oxy}propyl) heptanedioate]	–	–	–	163 nm	87.7%	6.68	–
Bis(2-(pent-4-en-1-yl)hept-6-en-1-yl) O,O′-(2-(((4-(((2-(118yrrolidine-1-yl)ethyl)carbamoyl)oxy)decanoyl)oxy)methyl)propane-1,3-diyl) diadipate [Example 3]	140.85 nm	5.5%	82.63%	–	–	–	–
